{"source": "patent US20200188441A1", "about": "“METHODS AND COMPOSITIONS FOR REDUCING CORNEAL ENDOTHELIAL CELL LOSS” (The Schepens Eye Research Institute, Inc., priority 2017, published 2020)", "key": {"[1]": {"tested_on": "human corneal endothelial cells", "assay": "Corneal endothelial wound healing in vitro", "type": "cell-based", "conditions": "VIP 10^−9, 10^−7 and 10^−6 M; 12 and 24 hours after incubation; vs control", "text": "FIG. 9 is a graph showing that VIP treatment of human corneal endothelial cells accelerates corneal endothelial wound healing in vitro in a dose-dependent manner Percentage of healed endothelial area compared to baseline in VIP-treated groups and in control. […] Error bars indicate mean±SEM. Each group consists of n=9, and data from one out of two independent experiments is shown."}, "corneal graft [2]": {"tested_on": "corneal graft", "assay": "Murine model of syngeneic corneal transplantation with endothelial injury", "type": "in vivo", "text": "FIG. 11A: Representative slit-lamp images showing corneas at week 2-6 post-transplantation (magnification ×25). […] FIG. 11C: Representative confocal micrographs of central area of transplanted corneas isolated from VIP-treated mice and the control groups at week 2, 4 and 6 after transplantation. To visualize corneal endothelial cell-to-cell junctions, corneas were stained with zonula occluden-1 (ZO-1, green). The scale bars are equal to 100 μm (magnification ×40). FIG. 11D: Bar diagram showing central endothelial cell density in VIP-treated corneas and controls at 2, 4 and 6 weeks post-transplantation. Data are presented as mean±SEM. Each group consists of n=6 corneas, and data from one out of two independent experiments is shown."}, "[3]": {"tested_on": "corneal endothelial cells", "assay": "IFNγ- and TNFα-mediated corneal endothelial cell apoptosis in corneal cups ex vivo (TUNEL)", "type": "cell-based, C57BL/6", "conditions": "VIP 10^−6 M; 18 hours of incubation", "protocol": "FIG. 10A is a set of micrographs and FIG. 10B is a graph showing that VIP suppresses IFNγ- and TNFα-mediated corneal endothelial cell apoptosis. FIG. 10A: Representative confocal micrographs showing nave C57BL/6 corneal cups incubated with either IFNγ or TNFα with or without VIP (10^−12, 10^−9, 10^−6 M). After 18 hours of incubation, corneas were stained for zonula occluden-1 (ZO-1, green) and terminal deoxynucleotidyl transferase-mediated dUTP nick-end labeling assay (TUNEL, red) to visualize endothelial cell-to-cell junctions and apoptotic cells, respectively. The scale bars are equal to 100 μm (magnification ×40). FIG. 10B: Bar diagram showing the percentages of apoptotic (TUNEL-positive) corneal endothelial cells incubated ex vivo with either IFNγ or TNFα with different doses of VIP. […] Data are presented as mean±SEM. Each group consists of n=5 corneas and data from one out of two independent experiments is shown."}, "corneal graft [4]": {"tested_on": "corneal graft", "assay": "High-risk allogeneic corneal transplantation", "type": "in vivo, mice", "text": "FIGS. 12A-D are graphs and images showing the effect of VIP treatment on high-risk corneal transplant survival. Animals underwent high-risk allogeneic corneal transplantation and received treatment with VIP at 1, 3, 5, 7 and 9 days after transplantation. […] Each group consists of n=14. FIG. 12C: Representative confocal micrographs of central area of transplanted corneas in VIP-treated mice and in controls at 1, 2 and 8 weeks post-transplantation. Corneal endothelial cell-to-cell junction were stained and visualized with zonula occluden-1 (ZO-1, green). The scale bars are equal to 100 μm (magnification ×40). […] Horizontal line represents the CEnC density of nave age-matched C57BL/6 corneas. Each group consists of n=5 corneas. All data are presented as mean±SEM, and data from one out of two independent experiments is shown."}}, "note": "No end group written: not given here.", "data": [{"substance": "VIP: vasoactive intestinal polypeptide, a neuropeptide; exemplary human sequence SEQ ID NO: 5 (HSDAVFTDNYTRLRKQMAVKKYLNSILN; ends and bridges not checked; UniProt P01282 125-152, looked up)", "values": [{"measurement": "wound healing (percentage of healed endothelial area compared to baseline)", "setting": "[1]", "result": "significantly enhanced wound healing"}, {"measurement": "corneal endothelial wound healing", "setting": "corneal graft [2]; syngeneic transplantation with endothelial injury", "result": "enhances corneal endothelial wound healing"}, {"measurement": "graft opacity scores", "setting": "corneal graft [2]; week 2 to 6 post-transplantation, vs control", "result": "significantly decreased"}, {"measurement": "IFNγ-mediated corneal endothelial cell apoptosis (TUNEL-positive cells)", "setting": "[3]", "result": "significantly suppresses"}, {"measurement": "TNFα-mediated corneal endothelial cell apoptosis (TUNEL-positive cells)", "setting": "[3]", "result": "significantly suppresses"}, {"measurement": "graft opacity scores", "setting": "corneal graft [4]; 4 to 8 weeks post-transplantation, VIP at 1, 3, 5, 7 and 9 days after transplantation", "result": "significantly decreased"}, {"measurement": "central CEnC density", "setting": "corneal graft [4]; 8 weeks post-transplantation, vs control", "result": "significantly higher"}, {"measurement": "hazard ratio (graft survival, VIP-treated vs controls)", "setting": "corneal graft [4]; 8 weeks, 95% CI 0.04-0.26, Log rank test", "result": 0.10}, {"measurement": "graft survival", "setting": "corneal graft [4]; weekly examination for 8 weeks, controls 0%", "result": 85, "unit": "%"}]}]}
